Assay results published in patent US20240225053A9 (priority 2021, published 2024).
“And” between values parts separate entries of the source, which are not always exact repeats. Equal entries are not always repeated. “Also recorded” adds a separate entry of the source. Where two headings read alike, the source gives them in different places.

Legend:
[1] = test system: Salmonella enterica IAM1648; format: cell-based; set-up: key: Good: Those in which agglomeration observed under upright microscope; Poor: Those in which no agglomeration observed under upright microscope
Escherichia coli MG1655 = format: cell-based; set-up: key: Good: Those in which agglomeration observed under upright microscope; Poor: Those in which no agglomeration observed under upright microscope
[2] = test system: Clostridium perfringens ATCC10873; format: cell-based; details: for Shape: 8 hours; for Agglomeration (text) / Shape of the bacterial cells: Example 2 strains
[3] = test system: Lactobacillus casei ATCC393; format: cell-based; set-up: key to Agglomeration: Good: Those in which agglomeration observed under upright microscope; Poor: Those in which no agglomeration observed under upright microscope
[4] = test system: Clostridium perfringens strain SM101; format: cell-based; details: KCl 500 mM
[5] = test system: Clostridium perfringens ATCC10873; format: cell-based; set-up: unit not given here; details: bacterial cells, 8 hours, diluted 100 times
[6] = test system: Clostridium perfringens SM101; format: cell-based; set-up: unit not given here; details: bacterial cells, 500 mM, 8 hours, diluted 100 times
[7] = test system: Clostridium perfringens CNEOP004 (netB toxin producer); format: cell-based; set-up: key to Agglomeration: Good: Agglomeration effect observed; Poor: No agglomeration effect observed; details: 500 mM
[8] = test system: Clostridium perfringens ATCC10873; format: cell-based; set-up: key: Good: Those in which agglomeration observed under upright microscope; Poor: Those in which no agglomeration observed under upright microscope; details: Table 4, 500 mM
[9] = test system: mixed bacterial cells of Clostridium perfringens ATCC10873, Salmonella enterica IAM1648 and E. coli MG1655; format: cell-based; details: 500 mM in combination with Arabic Gum 1%; OD660 about 2.0, 37° C.
[10] = test system: Clostridium perfringens ATCC10873; format: cell-based; set-up: key: Good: Agglomeration effect observed; Poor: No agglomeration effect observed
[11] = test system: Bifidobacterium animalis JCM1190; format: cell-based; set-up: key to Agglomeration: Good: Those in which agglomeration observed under upright microscope; Poor: Those in which no agglomeration observed under upright microscope
[12] = test system: Clostridium perfringens CNEOP004; format: cell-based; set-up: unit not given here; details: bacterial cells, 500 mM, 8 hours, diluted 100 times
[13] = test system: Clostridium perfringens ATCC10873; format: cell-based; set-up: key to Settling: Good: Settling effect observed; Poor: No settling effect observed; details: for Settling: 37° C., 8 hours; for Concentration required for settling / at which settling was confirmed: optical density about 2.0 at 660 nm
[14] = test system: Clostridium perfringens SM101 (CPE toxin producer); format: cell-based; set-up: key to Agglomeration: Good: Agglomeration effect observed; Poor: No agglomeration effect observed; details: 500 mM
[15] = set-up: species or system chickens (broilers, UK Chunky); details: in vivo
Clostridium perfringens = format: in vivo, chickens (broilers); details: for Dead birds Total: 500 chickens
[16] = Table 2-1, 100 mM, without AG, 8 hours
[17] = Table 2-1, 500 mM, w/AG 1%, 8 hours
[18] = Table 2-1, 500 mM, without AG, 8 hours
[19] = Day 0-14, BMD 55 ppm, Coated-KCl 47 ppm in feed
[20] = Day 15-28, BMD 55 ppm, Coated-KCl 47 ppm in feed
[21] = Day 29-42, BMD 55 ppm, Coated-KCl 47 ppm in feed

## [Cl-].[K+] [KCl]
[1]
  Agglomeration: Poor and Good
Escherichia coli MG1655
  Agglomeration: Poor and Good
[2]; 100 mM, without AG
  Shape: Spheroidal
[2]; 500 mM, w/AG 1%
  Shape: Spheroidal
[2]; 500 mM, without AG
  Shape: Spheroidal
[2]; absence of AG
  Agglomeration (text): did not agglomerate
  Shape of the bacterial cells: changed from bacilli to cocci
[2]; coexistence with AG
  Agglomeration (text): agglomerated in the state of cocci
[3]
  Agglomeration: Poor
  Agglomeration effect: not exerted
[4]
  Nature of cocci (vegetative cells or spores) under phase-contrast microscope: not spores
[5]; 500 mM, W/AG 1%
  Zeta potential: −10.2
[5]; 500 mM, without AG
  Zeta potential: −29.0
[6]; w/AG 1%
  Zeta potential: −26.5
[6]; without AG
  Zeta potential: −30.2
[7]; w/AG 1%, 8 hours
  Shape: Spheroidal
[7]; without AG, 8 hours
  Shape: Spheroidal
[7]; Table 2-3, w/AG 1%, 8 hours
  Agglomeration: Good
[7]; Table 2-3, without AG, 8 hours
  Agglomeration: Poor
[7]; Table 3-3, w/AG 1%
  Agglomeration: Good
[7]; Table 3-3, without AG
  Agglomeration: Poor
[8]; W/AG 1%
  Agglomeration: Good
[8]; without AG
  Agglomeration: Poor
[9]
  Agglomeration of the three types of enteric bad bacteria: can quickly agglomerate
[10]; [16]
  Agglomeration: Poor
[10]; [17]
  Agglomeration: Good
[10]; [18]
  Agglomeration: Poor
[10]; Table 3-1, 500 mM, W/AG 1%
  Agglomeration: Good
[10]; Table 3-1, 500 mM, without AG
  Agglomeration: Poor
[11]
  Agglomeration: Poor
  Agglomeration effect: not exerted
[12]; w/AG 1%
  Zeta potential: −23
[12]; without AG
  Zeta potential: −25
[13]; 100 mM, without AG
  Settling: Good
[13]; 500 mM, w/AG 1%
  Settling: Good
[13]; 500 mM, without AG
  Settling: Good
[13]; absence of AG
  Concentration required for settling / at which settling was confirmed: ≥ 100 mM
[14]; w/AG 1%, 8 hours
  Shape: Spheroidal
[14]; without AG, 8 hours
  Shape: Spheroidal
[14]; Table 2-2, w/AG 1%, 8 hours
  Agglomeration: Good
[14]; Table 2-2, without AG, 8 hours
  Agglomeration: Poor
[14]; Table 3-2, w/AG 1%
  Agglomeration: Good
[14]; Table 3-2, without AG
  Agglomeration: Poor

## [Cl-].[Cl-].[Mg+2] [MgCl2]
[1]
  Agglomeration: Poor and Good
Escherichia coli MG1655
  Agglomeration: Poor and Good
[2]; 500 mM, w/AG 1%
  Shape: Rod-shaped
[2]; 500 mM, without AG
  Shape: Rod-shaped
[2]; absence of AG
  Agglomeration (text): no agglomeration was observed
  Shape of the bacterial cells: shape as bacilli remained unchanged
[2]; coexistence with AG
  Agglomeration (text): agglomeration of Clostridium perfringens was observed
[3]
  Agglomeration: Poor and Good
[5]; 500 mM, W/AG 1%
  Zeta potential: −12.9
[5]; 500 mM, without AG
  Zeta potential: −3.2
[6]; w/AG 1%
  Zeta potential: −10.2
[6]; without AG
  Zeta potential: −12.1
[7]; w/AG 1%, 8 hours
  Shape: Rod-shaped
[7]; without AG, 8 hours
  Shape: Rod-shaped
[7]; Table 2-3, w/AG 1%, 8 hours
  Agglomeration: Good
[7]; Table 2-3, without AG, 8 hours
  Agglomeration: Poor
[7]; Table 3-3, w/AG 1%
  Agglomeration: Good
[7]; Table 3-3, without AG
  Agglomeration: Good
[8]; W/AG 1%
  Agglomeration: Good
[8]; without AG
  Agglomeration: Poor
[10]; [17]
  Agglomeration: Good
[10]; [18]
  Agglomeration: Poor
[10]; Table 3-1, 500 mM, W/AG 1%
  Agglomeration: Good
[10]; Table 3-1, 500 mM, without AG
  Agglomeration: Poor
[11]
  Agglomeration: Poor
[12]; w/AG 1%
  Zeta potential: −11.8
[12]; without AG
  Zeta potential: −12
[13]; 500 mM, absence of AG
  Settling effect: did not exert a settling effect
[13]; 500 mM, in combination with AG
  Settling effect: exerted a settling effect
[13]; 500 mM, w/AG 1%
  Settling: Good
[13]; 500 mM, without AG
  Settling: Poor
[13]; absence of AG
  Concentration required for settling / at which settling was confirmed: over 500 mM
[14]; w/AG 1%, 8 hours
  Shape: Rod-shaped
[14]; without AG, 8 hours
  Shape: Rod-shaped
[14]; Table 2-2, w/AG 1%, 8 hours
  Agglomeration: Good
[14]; Table 2-2, without AG, 8 hours
  Agglomeration: Poor
[14]; Table 3-2, w/AG 1%
  Agglomeration: Good
[14]; Table 3-2, without AG
  Agglomeration: Good

## [Cl][Fe][Cl] [FeCl2]
[1]
  Agglomeration: Poor
Escherichia coli MG1655
  Agglomeration: Poor
[2]; 10 mM, without AG
  Shape: Rod-shaped
[2]; 50 mM, without AG
  Shape: Rod-shaped
[2]; absence of AG
  Concentration at which bacterial cells agglomerated: ≥ 10 mM
  Agglomeration (text): showed an agglomeration effect; also recorded: agglomerated in the state of bacilli
[3]
  Agglomeration: Good
  Agglomeration effect: showed an agglomeration effect
[5]; 10 mM, without AG
  Zeta potential: 0.8
[5]; 50 mM, without AG
  Zeta potential: 20.7
[6]; without AG
  Zeta potential: 4.1
[7]; without AG, 8 hours
  Shape: Rod-shaped
[7]; Table 2-3, without AG, 8 hours
  Agglomeration: Good
[7]; Table 3-3, without AG
  Agglomeration: Good
[8]; without AG
  Agglomeration: Good
[10]; Table 2-1, 10 mM, without AG, 8 hours
  Agglomeration: Good
[10]; Table 2-1, 50 mM, without AG, 8 hours
  Agglomeration: Good
[10]; Table 3-1, 10 mM, without AG
  Agglomeration: Good
[10]; Table 3-1, 50 mM, without AG
  Agglomeration: Good
[11]
  Agglomeration: Good
  Agglomeration effect: showed an agglomeration effect
[12]; without AG
  Zeta potential: 21.5
[13]; 10 mM, without AG
  Settling: Good
[13]; 50 mM, without AG
  Settling: Good
[13]; absence of AG
  Concentration required for settling / at which settling was confirmed: ≥ 10 mM
[14]; without AG, 8 hours
  Shape: Rod-shaped
[14]; Table 2-2, without AG, 8 hours
  Agglomeration: Good
[14]; Table 3-2, without AG
  Agglomeration: Good

## [Ca+2].[Cl-].[Cl-] [CaCl2]
[1]
  Agglomeration: Poor
Escherichia coli MG1655
  Agglomeration: Poor
[2]; 20 mM, without AG
  Shape: Rod-shaped
[2]; 100 mM, without AG
  Shape: Rod-shaped
[2]; absence of AG
  Concentration at which bacterial cells agglomerated: ≥ 20 mM
  Agglomeration (text): agglomerated in the state of bacilli
[3]
  Agglomeration: Poor
[5]; 20 mM, without AG
  Zeta potential: −4.4
[5]; 100 mM, without AG
  Zeta potential: −4.0
[6]; without AG
  Zeta potential: −14.3
[7]; without AG, 8 hours
  Shape: Rod-shaped
[7]; Table 2-3, without AG, 8 hours
  Agglomeration: Good
[7]; Table 3-3, without AG
  Agglomeration: Good
[8]; without AG
  Agglomeration: Good
[10]; Table 2-1, 20 mM, without AG, 8 hours
  Agglomeration: Good
[10]; [16]
  Agglomeration: Good
[10]; Table 3-1, 20 mM, without AG
  Agglomeration: Good
[10]; Table 3-1, 100 mM, without AG
  Agglomeration: Good
[11]
  Agglomeration: Poor
[12]; without AG
  Zeta potential: −12.3
[13]; 20 mM, without AG
  Settling: Poor
[13]; 100 mM, without AG
  Settling: Poor
[14]; without AG, 8 hours
  Shape: Rod-shaped
[14]; Table 2-2, without AG, 8 hours
  Agglomeration: Good
[14]; Table 3-2, without AG
  Agglomeration: Good

## bacitracin methylene disalicylate [BMD]
[15]
  BWG %: versus Control (Non treatment): 106.0% and 103.9% and 103.5%
  Weight gain as compared with Control (Non treatment), in words: weight gain was improved
Clostridium perfringens; [19]
  Dead birds Total: 19
  Dead birds NE Caused: 0
Clostridium perfringens; [20]
  Dead birds Total: 10
  Dead birds NE Caused: 4
Clostridium perfringens; [21]
  Dead birds Total: 6
  Dead birds NE Caused: 0
Clostridium perfringens; average, 6 weeks, BMD 55 ppm, Coated-KCl 47 ppm in feed
  NE Caused Mortality: 0.80
Clostridium perfringens; day 17, three birds per pen, 0 = none to 3 = severe, average, BMD 55 ppm, Coated-KCl 47 ppm
  NE Lesion Score: 0.30
Clostridium perfringens; text b129
  Mortality reduced to, as compared with Challenge Control: 13.2%

## [Cl-].[Na+] [NaCl]
[2]; 500 mM, w/AG 1%
  Shape: Spheroidal
[2]; 500 mM, without AG
  Shape: Spheroidal
[2]; absence of AG
  Agglomeration (text): did not agglomerate
  Shape of the bacterial cells: changed from bacilli to cocci
[2]; coexistence with AG
  Agglomeration (text): agglomerated in the state of cocci
[9]
  Agglomeration of the three types of enteric bad bacteria: can quickly agglomerate
[10]; [17]
  Agglomeration: Good
[10]; [18]
  Agglomeration: Poor
[13]; 20 mM, without AG
  Settling: Poor
[13]; 100 mM, without AG
  Settling: Poor
[13]; 500 mM, w/AG 1%
  Settling: Good
[13]; 500 mM, without AG
  Settling: Good
